Target: c-kit (Homo sapiens (Human), UniProt P10721)
Test: Mo7e cell proliferation assay (SCF dependent proliferation)
Format: cell-based
Conditions: Mo7e cells stimulated with human recombinant SCF, 48 hours
How it was run: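 SCF-dependent proliferation of human Mo7e cells, which express c-kit endogenously. After 48 h at 37° C, viability read by CellTiter Glo luminescence. IC50 taken as concentration giving response halfway between baseline and maximum.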

Chain of c-kit (P10721 26-976): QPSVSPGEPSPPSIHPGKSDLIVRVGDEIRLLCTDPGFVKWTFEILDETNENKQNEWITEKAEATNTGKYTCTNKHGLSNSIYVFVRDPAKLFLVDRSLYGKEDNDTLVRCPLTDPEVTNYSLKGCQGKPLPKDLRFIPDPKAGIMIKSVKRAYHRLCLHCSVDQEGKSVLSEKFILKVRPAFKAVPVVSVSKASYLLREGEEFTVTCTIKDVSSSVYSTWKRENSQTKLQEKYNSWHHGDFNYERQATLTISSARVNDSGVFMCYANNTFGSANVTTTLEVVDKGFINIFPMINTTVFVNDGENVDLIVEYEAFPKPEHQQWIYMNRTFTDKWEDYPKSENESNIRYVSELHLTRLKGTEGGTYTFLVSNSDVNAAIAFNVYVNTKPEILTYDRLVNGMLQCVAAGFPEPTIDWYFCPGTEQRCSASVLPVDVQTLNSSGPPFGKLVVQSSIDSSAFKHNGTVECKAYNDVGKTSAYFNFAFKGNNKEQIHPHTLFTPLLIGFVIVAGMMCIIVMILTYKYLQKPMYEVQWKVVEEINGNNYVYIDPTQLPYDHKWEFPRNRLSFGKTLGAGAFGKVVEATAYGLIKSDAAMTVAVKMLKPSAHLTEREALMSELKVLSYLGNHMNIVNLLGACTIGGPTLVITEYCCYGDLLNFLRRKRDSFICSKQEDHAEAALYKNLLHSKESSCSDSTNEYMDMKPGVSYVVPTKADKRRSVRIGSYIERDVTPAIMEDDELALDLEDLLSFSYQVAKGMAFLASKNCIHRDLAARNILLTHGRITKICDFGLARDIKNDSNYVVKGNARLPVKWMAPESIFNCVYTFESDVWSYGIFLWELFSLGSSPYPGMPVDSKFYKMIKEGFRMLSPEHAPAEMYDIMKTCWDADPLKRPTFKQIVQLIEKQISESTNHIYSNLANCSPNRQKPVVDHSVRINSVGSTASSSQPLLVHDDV

SMILES	IC50 (1% FBS) [nM]	IC50 (20% FBS (values marked *)) [nM]
Cc1ccc(-c2noc(C3CCC3)n2)cc1NC(=O)c1cnc2ccccn12 [F57]	23	
Cn1cc(-c2ccc3ncc(C(=O)Nc4cc(-c5noc(C6CC(F)(F)C6)n5)ccc4F)n3c2)cn1 [F47]	33	
Cc1ccc(-c2nc(C3CC3)no2)cc1NC(=O)c1cnc2ccccn12 [F114]		322
Cc1ccc(-c2noc(C3CC4(C3)OC[C@H](C)O4)n2)cc1NC(=O)c1cnc2ccccn12 (some centres unmarked) [F12]	12	
Cc1nnc(-c2ccc3ncc(C(=O)Nc4cc(-c5noc(C6CC(F)(F)C6)n5)ccc4C)n3c2)[nH]1 [F79, N-(5-(5-(3,3-difluorocyclobutyl)-1,2,4-oxadiazol-3-yl)-2-methylphenyl)-6-(5-methyl-1H-1,2,4-triazol-3-yl)imidazo[1,2-a]pyridine-3-carboxamide]	55	
